Experimental data taken from patent publication US20030109699A1, “Amphiphilic quinolylpolyamines as transfer agents for biologically active macromolecules” (priority 1999, published 2003).

Key:
eucaryotic cells = conditions: 10-100 μM chloroquine added to the cell culture medium; cited from earlier work
breast tumor cells MCF7 = conditions: FIG. 9; for transfection efficiency with pEGFP-N1-plasmid compared with Transfectam: mixtures with 70 mol % DOPE in ethanolic solutions, MCF7; for percentage of transfected cells after pre-complexing of the DNA with protamine sulfate: mixtures with 70 mol % DOPE, ethanolic, DNA pre-complexed with protamine sulfate versus not
Procedure: The day before the transfection 40-50000 cells were seeded per well in a 24-well cell culture plate (appr. 70% confluence). For the preparation of the complexes 4 μl of the ethanolic lipid reagent (30 mol % lipid #2 respectively #7; 70 mol % DOPE) were added to a solution of each 2 μg of the plasmid-DNA (pEGFP-N1; Clontech Laboratories, Inc; catalog-nr. 6085-1) in 300 μl fcs-free medium and were incubated at room temperature for 30 min. For the transfection in the presence of protamine sulfate 2 μg plasmid-DNA was pre-complexed with 2 μg protamine sulfate in 300 μl serum free medium for 10 min whereupon 4 μl of the lipid reagent were added. Shortly before the transfection the cell culture medium was replaced with 700 μl fresh medium (14.3% fcs). After addition of the lipid-DNA complexes and incubation of the cells for 48 hours the percentage of GFP expressing fluorescent cells was determined by FACS-analysis as described above.

[1] = test system: different tumor cell lines (HeLa, Hec1a, SKOV3, MCF-7, Hey, SKBR3); conditions: lipids mixed with DOPE; all tested cell lines; versus Transfectam, Lipofectamine and DC-Chol; GFP and beta-galactosidase reporter plasmids; FIGS. 5 and 6
From the text: In general: The cell lines used HeLa, Hec1a, SKOV3, MCF-7, Hey, SKBR3, T47D, 293 were cultivated according to standard ATCC conditions. Commercial transfection reagents Transfectam®, Lipofectamine™ und Superfect were used according to the manufacturer's instructions. DC-Chol was synthesized as described previously [L. Huang et al. Biochem. Biophys. Res. Commun. 179(1) (1991) 280-285] and was formulated with DOPE for the transfection experiments.
The day before the transfection 40-50000 cells were seeded per well in a 24-well cell culture plate (appr. 70% confluence). For the preparation of the complexes 3 μl (for SKBR3, MCF-7, Hey) respectively 6 μl (for HeLa, Hec1a, SKOV3) of the aqueous lipid reagent (30 mol % lipid #2 respectively #7 respectively #9; 70 mol % DOPE) were added to a solution of each 2 μg of the plasmid-DNA (pEGFP-N1; Clontech Laboratories, Inc; Katalog-Nr. 6085-1) in 300 μl of fcs-free medium and were incubated at room temperature for 30 min. Shortly before the transfection the cell culture medium was replaced with 700 μl fresh medium (14.3% fcs). After addition of the lipid-DNA complexes and incubation of the cells for 48 hours the percentage of GFP expressing fluorescent cells was determined by FACS-analysis. For this the cells were washed with PBS and were separated by trypsination and subsequent centrifugation. The thus obtained cell pellet was resuspended in 500 μl PBS and the percentage of fluorescent cells was determined by FACS-analysis using a FACScan device (Becton Dickinson).

| Compound | effect on the efficiency of the cationic amphiphiles (eucaryotic cells) | transfection efficiency with pEGFP-N1-plasmid compared with Transfectam (breast tumor cells MCF7) | percentage of transfected cells after pre-complexing of the DNA with protamine sulfate (breast tumor cells MCF7) | transfection efficiency compared with known lipid formulations [1] |
| --- | --- | --- | --- | --- |
| CCN(CC)CCCC(C)Nc1ccnc2cc(Cl)ccc12 (centres unmarked) [chloroquine] | significantly increases the efficiency |  |  |  |
| CCN(CC)CCN(CCNc1ccnc2cc(Cl)ccc12)C(=O)O[C@H]1CC[C@@]2(C)C(=CC[C@H]3[C@@H]4CC[C@H]([C@H](C)CCCC(C)C)[C@@]4(C)CC[C@@H]32)C1.Cl [#2, 7-chloro-4-[N^1-(N^4-carboxycholesteryl)-(N^7-diethyl)-1,4,7-triaza-heptyl]-quinoline Hydrochloride] |  | significantly more efficient | significant increase | higher efficiency |
| CC(C)CCC[C@@H](C)[C@H]1CC[C@H]2[C@@H]3CC=C4C[C@@H](OC(=O)N(CCCNc5ccnc6cc(Cl)ccc56)CCN(C)C)CC[C@]4(C)[C@H]3CC[C@]12C.Cl [#7, 7-chloro-4-[N^1-(N^5-carboxycholesteryl)-(N^8-dimethyl)-1,5,8-triaza-octyl]-quinoline Hydrochloride] |  | significantly more efficient | significant increase | higher efficiency |
| CCCCCCCC/C=C\CCCCCCCC(=O)OC[C@@H](CN(CCCNc1ccnc2cc(Cl)ccc12)CCN(C)C)OC(=O)CCCCCCC/C=C\CCCCCCCC [#9, 7-chloro-4-[N^1-(N^5-(2(R),3-dioleoyloxy)propyl)-(N^8-dimethyl)-1,5,8-triaza-octyl]-quinoline] |  |  |  | higher efficiency |
